# Assay results published in paper doi:10.1101/2025.08.13.670122v1 (bioRxiv, 2025).
# Legend:
# [1] = molecular target: T1, AT1R (Homo sapiens, UniProt P30556); experiment: Rho BRET sensor (PKN-RBD-RlucII/rGFP-CAAX) in ΔG12/13 HEK293 cells expressing AT1R; type: cell-based; design: expressed in transfected cells; host or cells: HEK293 cells, transient PEI transfection; details: for Emax Rho Gαq/11 (% AngII): ΔG12/13 HEK293/AT1R, Rho BRET sensor, response at 10 μM, normalised to AngII; for EC50: ΔG12/13 HEK293 cells expressing AT1R, Rho (PKN-RBD-RlucII/rGFP-CAAX) BRET sensor, 3 min stimulation, mean ± SEM of at least three to five independent experiments, SEM, read-out: EC50 Rho Gαq/11
# T1 sequence (P30556 1-359): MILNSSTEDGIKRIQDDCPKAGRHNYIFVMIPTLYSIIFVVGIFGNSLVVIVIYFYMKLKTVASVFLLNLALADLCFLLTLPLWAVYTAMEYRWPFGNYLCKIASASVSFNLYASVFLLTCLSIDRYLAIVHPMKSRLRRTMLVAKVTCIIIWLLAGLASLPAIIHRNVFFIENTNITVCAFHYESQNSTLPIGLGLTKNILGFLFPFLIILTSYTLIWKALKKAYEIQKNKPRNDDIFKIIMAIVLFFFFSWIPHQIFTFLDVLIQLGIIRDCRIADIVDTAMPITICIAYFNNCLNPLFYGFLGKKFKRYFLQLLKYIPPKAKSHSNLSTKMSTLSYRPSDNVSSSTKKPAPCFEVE
# From the text: (§1) We utilized a clonal cell line HEK293, referred to hereafter as HEK293 cells, which has been previously described.[7],[8] As a gracious gift from A. Inoue (Tohoku University, Sendai, Miyagi, Japan), CRISPR Gαq/11 and Gα12/13 knockout cell lines (ΔGq/11 and ΔG12/13, respectively), were derived as previously explained.[48] In brief, a CRISPR-Cas9 system was used to target either GNAQ and GNA11 or GNA12 and GNA13 genes in HEK293T cells simultaneously to generate the Gαq/11 and Gα12/13 knockout cell lines. For the production of adenovirus, we utilized HEK293A cells. All cells were grown in DMEM supplemented with 10% FBS and Penicillin-Streptomycin-L-Glutamine (10000 IU penicillin, 10000 µg/mL Streptomycin, 200 mM L-Glutamine) at 37°C in T175 flasks under a 5% CO2 humidified chamber. Periodic testing was carried out for mycoplasma contamination (ABM™, Mycoplasma PCR Detection kit). For all biosensors used, cells underwent transfection with the PEI reagent, employing a PEI:DNA ratio of 3:1. For the Gαq biosensor, HEK293 cells were transfected with the plasmids coding for Gαq-RLucII (120 ng), Gβ1 (3000 ng), Gγ1-GFP10 (3000 ng), human AT1 (3000 ng) and Salmon sperm DNA (SSD) (880 ng). For the β-arrestin2 recruitment assay, HEK293 cells were transfected with the plasmids coding for 120 ng β-arrestin-2-RLucII, 3000 ng AT1, 3000 ng rGFP-CAAX, and 3880 ng SSD. For the measurement of PKC, HEK293 cells were transfected with 3000 ng AT1, 600 ng PKC-c1b, and 6400 ng SSD. […] 100 µL of the cell/DNA mixture was added to white 96-well plates and incubated at 37°C at 5% CO2 for 48 h. For the Rho assay, ΔG12/13 cells were seeded at a density of 9,000 cells per well in poly-ornithine-coated white 96-well plates and transfected the following day. In brief, 1 μg of total DNA in 100 μL of PBS was mixed with 100 μL of PBS containing 3 μL of 1 mg/mL PEI. For Rho signaling, 150 ng of AT1R DNA with 25 ng of PKN-RBD-RlucII [8], and 100 ng of rGFP-CAAX were used. Empty pcDNA was used to reach 1 µg of the total DNA amount in 100 μL of PBS. The DNA was then mixed with 100 μL of PBS containing 3 μL of 1 mg/mL PEI. After a 20-min incubation, the DNA/PEI complexes were dispensed into cells in 96-well plates (15 µL/well), and the experiment was carried out 48 h post-transfection.
# (§2) On the day of the experiment, each well was washed with 80 µL of Tyrode’s buffer (140 mM NaCl, 2.7 mM KCl, 1 mM CaCl2, 12 mM NaHCO3, 5.6 mM D-glucose, 0.5 mM MgCl2, 0.37 mM NaH2PO4, 25 mM Hepes (pH 7.4)). This was followed by incubation for 1 h in Tyrode’s buffer at room temperature. […] Cells were then stimulated with increasing doses of the indicated ligand, and BRET signals were measured using a Tristar2 (Berthold) microplate reader 10 min later. […] BRET signals were then measured using a Synergy2 (BioTek) microplate reader. […]
# [2] = molecular target: T1, AT1R; experiment: PKC BRET sensor in HEK293 cells expressing AT1R; type: cell-based; design: expressed in transfected cells; host or cells: HEK293 cells, transient PEI transfection; details: for Emax PKC (% AngII): PKC BRET sensor, response at 10 μM, normalised to AngII; for EC50: PKC-c1b BRET sensor, read 10 min after ligand, mean ± SEM of at least three to five independent experiments, SEM
# From the text: as §1, §2
Emax Rho Gαq/11 (% AngII) [1],EC50 [1],Emax PKC (% AngII) [2],EC50 [2],Compound
105 % AngII,2.3 ± 0.5 nM,105 % AngII,0.66 ± 0.13 nM,CC[C@H](C)[C@H](NC(=O)[C@H](Cc1ccc(O)cc1)NC(=O)[C@@H](NC(=O)[C@H](CCCNC(=N)N)NC(=O)[C@@H](N)CC(=O)O)C(C)C)C(=O)N[C@@H](Cc1c[nH]cn1)C(=O)N1CCC[C@H]1C(=O)N[C@@H](Cc1ccc(OC)cc1)C(=O)O [compound 11]
47 % AngII,21 ± 5 nM,51 % AngII,4.8 ± 3.4 nM,CC[C@H](C)[C@H](NC(=O)[C@H](Cc1ccc(O)cc1)NC(=O)[C@@H](NC(=O)[C@H](CCCNC(=N)N)NC(=O)[C@@H](N)CC(=O)O)C(C)C)C(=O)N[C@@H](Cc1c[nH]cn1)C(=O)N1CCC[C@H]1C(=O)N[C@@H](Cc1ccc(OCc2ccccc2)cc1)C(=O)O [compound 12]
